Assay results reported in the supplement of paper PMC10331698.
± gives the standard deviation of the averaged measurements.

Assays:
Test in all cases: level (log10 ratio to DMSO vehicle control); higher = higher biomarker level / cell amount than vehicle control
Conditions in all cases: in DMSO
[1] = compound: O=C(O)C(F)(F)C(F)(F)C(F)(F)C(F)(F)C(F)(F)C(F)(F)C(F)(F)C(F)(F)C(F)(F)C(F)(F)C(F)(F)C(F)(F)C(F)(F)F [Perfluorotetradecanoic acid]
Protocol: (§1)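 BioMAP Diversity Plus panel of 12 human primary cell co-culture systems (3C, 4H, LPS, SAg, BT, BF4T, BE3C, CASM3C, HDF3CGF, KF3CT, MyoF, Mphg). Compounds were added 1 h before stimulation and left for 24 h (MyoF 48 h; BT 72 h for soluble read-outs or 6 d for IgG). Biomarkers were read by ELISA, cytotoxicity by SRB, PBMC viability and proliferation by Alamar Blue. Each well value was divided by the mean of 8 DMSO control wells on the same plate and log10 transformed; duplicate blinded samples were tested at 4 concentrations.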

[2] = compound: CCCCCCCCC(F)(F)C(F)(F)C(F)(F)C(F)(F)C(F)(F)C(F)(F)F [1-(Perfluorohexyl)octane]
Protocol: as §1

[3] = compound: O=C(O)C(F)(F)C(F)(F)C(F)(F)C(F)(F)C(F)(F)C(F)(F)C(F)(F)C(F)(F)Cl [9-Chloro-perfluorononanoic acid]
Protocol: as §1

[4] = compound: O=C(O)C(F)(F)OC(F)(F)C(F)(F)OC(F)(F)C(F)(F)C(F)(F)C(F)(F)F [Perfluoro-3,6-dioxadecanoic acid]
Protocol: as §1

Test System | level (log10) ([1]; 6700 nM) | level (log10) ([1]; 20000 nM) | level (log10) ([2]; 6700 nM) | level (log10) ([2]; 20000 nM) | level (log10) ([3]; 6700 nM) | level (log10) ([3]; 20000 nM) | level (log10) ([4]; 6700 nM) | level (log10) ([4]; 20000 nM) | level (log10) ([4]; 60000 nM)
3C:CD87/uPAR | 0.032 ± 0.081 | 0.0405 ± 0.073 | -0.0145 ± 0.013 | -0.0075 ± 0.019 | -0.013 ± 0.017 | -0.011 ± 0.038 | 0.0065 ± 0.013 | -0.0145 ± 0.011 | -0.083 ± 0.058
3C:CXCL8/IL-8 | -0.0045 ± 0.032 | 0.0485 ± 0.076 | -0.005 ± 0.0028 | 0.0005 ± 0.019 | 0.005 ± 0.037 | 0.0235 ± 0.063 | -0.006 | -0.0025 ± 0.0064 | 0.0305 ± 0.013
3C:CXCL9/MIG | -0.0045 ± 0.0035 | 0.0015 ± 0.0021 | 0.009 ± 0.023 | 0.017 ± 0.016 | -0.005 ± 0.0042 | 0.0065 ± 0.0078 | -0.015 ± 0.02 | -0.0185 ± 0.019 | -0.002 ± 0.017
3C:HLA-DR | -0.028 ± 0.03 | 0.0025 ± 0.037 | 0.028 ± 0.03 | 0.0205 ± 0.019 | -0.0105 ± 0.0078 | 0.004 ± 0.021 | 0.0345 ± 0.04 | 0.021 ± 0.044 | 0.016 ± 0.071
3C:Proliferation | -0.306 ± 0.046 | -0.329 ± 0.15 | -0.0125 ± 0.06 | -0.0035 ± 0.012 | 0.016 ± 0.079 | 0.019 ± 0.041 | -0.0105 ± 0.0035 | 0.0325 ± 0.022 | -0.369 ± 0.13
3C:SRB | -0.015 ± 0.0028 | -0.0165 ± 0.012 | 0.004 ± 0.021 | -0.005 ± 0.018 | -0.0005 ± 0.005 | -0.0165 ± 0.0035 | -0.016 ± 0.0071 | -0.0055 ± 0.019 | -0.149 ± 0.074
4H:CCL2/MCP-1 | -0.031 ± 0.0057 | 0.0115 ± 0.019 | -0.0525 ± 0.019 | -0.0495 ± 0.021 | -0.001 ± 0.014 | -0.0245 ± 0.0035 | -0.0225 ± 0.0092 | -0.0425 ± 0.011 | -0.093 ± 0.14
4H:CCL26/Eotaxin-3 | -0.0595 ± 0.019 | -0.0575 ± 0.047 | -0.0025 ± 0.0021 | 0.004 ± 0.021 | -0.04 ± 0.011 | 0.016 ± 0.037 | 0.0145 ± 0.005 | -0.0035 ± 0.039 | 0.032 ± 0.048
4H:CD62P/P-selectin | 0.0015 ± 0.011 | 0.0055 ± 0.021 | 0.0245 ± 0.039 | -0.007 ± 0.016 | -0.001 ± 0.065 | 0.0815 ± 0.023 | 0.015 ± 0.09 | 0.0205 ± 0.066 | 0.0165 ± 0.013
4H:CD87/uPAR | -0.0495 ± 0.097 | -0.0345 ± 0.14 | 0.027 ± 0.027 | 0.0155 ± 0.015 | 0.0055 ± 0.033 | 0.002 ± 0.0099 | -0.004 ± 0.0099 | -0.004 ± 0.0085 | -0.0175 ± 0.037
4H:CD106/VCAM-1 | -0.0805 ± 0.037 | -0.0775 ± 0.0078 | 0.011 ± 0.04 | -0.005 | -0.0145 ± 0.0078 | 0.0035 ± 0.013 | -0.0095 ± 0.018 | -0.0195 ± 0.022 | -0.039 ± 0.0099
4H:SRB | -0.014 ± 0.028 | -0.0155 ± 0.063 | 0.0035 ± 0.019 | -0.002 ± 0.0042 | -0.0015 ± 0.00071 | -0.0055 ± 0.0035 | -0.005 ± 0.018 | -0.002 ± 0.0057 | -0.065 ± 0.041
4H:VEGFR2 | 0.075 ± 0.11 | 0.084 ± 0.09 | 0.0045 ± 0.022 | 0.0245 ± 0.0021 | -0.108 ± 0.011 | -0.0395 ± 0.013 | -0.035 ± 0.065 | -0.0105 ± 0.035 | -0.0755 ± 0.036
BE3C:CD54/ICAM-1 | -0.003 ± 0.025 | 0.015 ± 0.062 | 0.0045 ± 0.011 | -0.0025 ± 0.0021 | 0.0145 ± 0.018 | -0.033 ± 0.014 | -0.0105 ± 0.0021 | -0.024 ± 0.013 | 0.008 ± 0.0057
BE3C:CD87/uPAR | 0.015 ± 0.034 | 0.065 ± 0.05 | 0.0085 ± 0.00071 | 0.017 ± 0.0099 | 0.0445 ± 0.0021 | -0.0005 ± 0.039 | 0.018 ± 0.0014 | 0.0455 ± 0.025 | 0.102 ± 0.0099
BE3C:CXCL8/IL-8 | -0.005 ± 0.055 | 0.0365 ± 0.052 | 0.0125 ± 0.052 | 0.068 ± 0.024 | 0.0025 ± 0.025 | -0.102 ± 0.049 | 0.0135 ± 0.016 | 0.0065 ± 0.019 | -0.0965 ± 0.0092

Test System | level (log10) ([1]; 6700 nM) | level (log10) ([1]; 20000 nM) | level (log10) ([2]; 6700 nM) | level (log10) ([2]; 20000 nM) | level (log10) ([3]; 6700 nM) | level (log10) ([3]; 20000 nM) | level (log10) ([4]; 6700 nM) | level (log10) ([4]; 20000 nM) | level (log10) ([4]; 60000 nM)
BE3C:CXCL9/MIG | -0.016 ± 0.02 | -0.006 ± 0.017 | 0.0055 ± 0.0035 | 0.0015 ± 0.0021 | -0.0015 ± 0.00071 | -0.047 | -0.0045 ± 0.011 | -0.011 ± 0.017 | -0.012 ± 0.0057
BE3C:CXCL10/IP-10 | 0.008 ± 0.0042 | -0.0275 ± 0.019 | 0.0055 ± 0.013 | -0.0025 ± 0.012 | -0.0545 ± 0.015 | -0.462 ± 0.011 | -0.0415 ± 0.025 | -0.0795 ± 0.033 | -0.626 ± 0.02
BE3C:CXCL11/I-TAC | -0.073 ± 0.052 | -0.0135 ± 0.071 | 0.003 ± 0.016 | -0.0035 ± 0.0021 | 0.0515 ± 0.005 | -0.161 ± 0.032 | 0.0945 ± 0.00071 | 0.124 ± 0.011 | 0.0095 ± 0.022
BE3C:EGFR | 0.01 ± 0.014 | 0.0145 ± 0.044 | -0.001 ± 0.0042 | -0.013 ± 0.0028 | -0.004 ± 0.0014 | -0.101 ± 0.015 | -0.02 ± 0.02 | -0.0485 ± 0.019 | -0.122 ± 0.0092
BE3C:HLA-DR | -0.013 ± 0.041 | -0.0135 ± 0.06 | 0.0095 ± 0.036 | 0.0015 ± 0.005 | -0.0575 ± 0.025 | -0.445 ± 0.052 | -0.038 ± 0.021 | -0.08 ± 0.0085 | -0.135 ± 0.017
BE3C:IL-1alpha | 0 ± 0.033 | 0.0145 ± 0.005 | 0.001 ± 0.02 | 0.0415 ± 0.044 | 0.023 ± 0.017 | -0.0765 ± 0.026 | -0.0135 ± 0.0021 | -0.0005 ± 0.0078 | -0.165 ± 0.021
BF4T:CCL2/MCP-1 | 0.0095 ± 0.016 | 0.0045 ± 0.012 | -0.014 ± 0.028 | 0.0175 ± 0.005 | -0.034 ± 0.028 | -0.0785 ± 0.044 | -0.175 ± 0.031 | -0.095 ± 0.016 | -0.16 ± 0.052
BF4T:CCL26/Eotaxin-3 | -0.074 ± 0.0057 | -0.057 ± 0.059 | 0.015 ± 0.051 | 0.0015 ± 0.054 | -0.144 ± 0.016 | -0.27 ± 0.014 | -0.241 ± 0.012 | -0.23 ± 0.018 | -0.231 ± 0.046
BF4T:CD54/ICAM-1 | -0.002 ± 0.0099 | 0.0175 ± 0.025 | 0.0005 ± 0.005 | -0.0085 ± 0.023 | -0.0085 ± 0.0021 | -0.0355 ± 0.0064 | -0.04 ± 0.0057 | -0.0335 ± 0.0035 | -0.0365 ± 0.005
BF4T:CD90 | -0.0125 ± 0.011 | -0.005 ± 0.0042 | -0.004 ± 0.0028 | -0.013 ± 0.0071 | -0.034 ± 0.013 | -0.0285 ± 0.005 | -0.023 ± 0.0099 | -0.004 ± 0.0014 | 0.017 ± 0.0071
BF4T:CD106/VCAM-1 | -0.011 ± 0.014 | -0.037 ± 0.031 | 0.005 ± 0.051 | -0.0025 ± 0.035 | -0.0485 ± 0.005 | -0.141 ± 0.011 | -0.0965 ± 0.018 | -0.083 ± 0.0099 | -0.0925 ± 0.03
BF4T:CXCL8/IL-8 | 0.0325 ± 0.012 | 0.0275 ± 0.028 | -0.0005 ± 0.00071 | 0.008 ± 0.023 | 0.112 ± 0.042 | 0.0875 ± 0.015 | 0.102 ± 0.0092 | 0.163 ± 0.011 | 0.171 ± 0.019
BF4T:IL-1alpha | -0.014 ± 0.013 | 0.0235 ± 0.032 | -0.017 ± 0.018 | 0.012 ± 0.02 | 0.0205 ± 0.0035 | -0.023 ± 0.011 | 0.008 ± 0.0057 | 0.0015 ± 0.00071 | -0.0055 ± 0.005
BF4T:Keratin 8/18 | -0.0135 ± 0.015 | 0.0195 ± 0.032 | 0.006 ± 0.016 | 0.0055 ± 0.0078 | -0.004 ± 0.0057 | -0.0105 ± 0.0035 | -0.0125 ± 0.0064 | -0.0225 ± 0.011 | 0.004 ± 0.033
BF4T:MMP-1 | 0.0015 ± 0.00071 | 0.013 ± 0.0028 | -0.0155 ± 0.035 | 0.0075 ± 0.052 | -0.0115 ± 0.0078 | 0.0245 ± 0.0064 | -0.046 ± 0.013 | 0.01 ± 0.037 | 0.0625 ± 0.015
